Measured values reported in ChEMBL document CHEMBL6134884, “Identification of JNJ-61803534, a RORγt Inverse Agonist for the Treatment of Psoriasis” (J Med Chem, 2025).

Key:
[1] = Metabolic stability in rat liver microsomes assessed as half life; assay type: ADME, Microsome
[2] = Oral bioavailability in male Sprague-Dawley rat at 5 mg/kg measured 24 hrs post dose by LC-MS/MS analysis; assay type: ADME, organism-based; conditions: in vivo
[3] = molecular target: Voltage-gated inwardly rectifying potassium channel KCNH2 (Homo sapiens, UniProt Q12809); assay: Inhibition of hERG by Q-patch clamp method; assay type: toxicity
Voltage-gated inwardly rectifying potassium channel KCNH2, sequence (Q12809 whole entry): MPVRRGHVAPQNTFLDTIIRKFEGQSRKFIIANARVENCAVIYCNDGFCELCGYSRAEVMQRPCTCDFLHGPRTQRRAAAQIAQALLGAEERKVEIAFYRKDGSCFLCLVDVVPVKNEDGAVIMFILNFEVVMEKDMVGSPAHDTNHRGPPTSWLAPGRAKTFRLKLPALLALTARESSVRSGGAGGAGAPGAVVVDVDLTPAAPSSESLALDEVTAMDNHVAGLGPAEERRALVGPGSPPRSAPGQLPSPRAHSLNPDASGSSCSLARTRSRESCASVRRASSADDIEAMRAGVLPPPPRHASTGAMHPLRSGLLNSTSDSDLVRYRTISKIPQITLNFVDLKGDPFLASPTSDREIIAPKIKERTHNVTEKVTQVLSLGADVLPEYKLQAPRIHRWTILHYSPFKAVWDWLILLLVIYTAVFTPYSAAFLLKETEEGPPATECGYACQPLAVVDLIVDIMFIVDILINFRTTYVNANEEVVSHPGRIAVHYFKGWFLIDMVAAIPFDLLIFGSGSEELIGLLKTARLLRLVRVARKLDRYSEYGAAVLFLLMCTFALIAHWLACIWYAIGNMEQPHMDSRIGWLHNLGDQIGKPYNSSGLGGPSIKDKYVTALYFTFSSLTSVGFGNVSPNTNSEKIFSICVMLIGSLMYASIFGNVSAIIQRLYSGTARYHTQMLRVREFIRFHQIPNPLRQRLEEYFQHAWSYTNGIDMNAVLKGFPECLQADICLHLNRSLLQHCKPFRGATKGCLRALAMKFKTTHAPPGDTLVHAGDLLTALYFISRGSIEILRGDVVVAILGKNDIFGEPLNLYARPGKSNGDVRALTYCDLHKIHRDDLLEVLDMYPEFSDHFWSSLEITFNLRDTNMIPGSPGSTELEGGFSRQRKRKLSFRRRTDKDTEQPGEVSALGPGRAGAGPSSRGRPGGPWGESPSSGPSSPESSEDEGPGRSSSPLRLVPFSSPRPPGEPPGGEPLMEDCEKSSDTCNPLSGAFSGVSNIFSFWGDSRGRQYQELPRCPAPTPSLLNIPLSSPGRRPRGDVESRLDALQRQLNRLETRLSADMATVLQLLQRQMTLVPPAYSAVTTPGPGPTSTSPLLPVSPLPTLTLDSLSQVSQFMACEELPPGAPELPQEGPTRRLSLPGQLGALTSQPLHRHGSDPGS

[4] = Plasma protein binding in rat assessed as unbound fraction; assay type: ADME, cell-free
Cytochrome P450 3A4 [5] = molecular target: T1, Cytochrome P450 3A4 (Homo sapiens, UniProt P08684); assay: Induction of CYP3A4 in human hepatocytes at 10 uM relative to control; assay type: ADME, cell-based, Hepatocyte
T1 sequence (P08684 whole entry): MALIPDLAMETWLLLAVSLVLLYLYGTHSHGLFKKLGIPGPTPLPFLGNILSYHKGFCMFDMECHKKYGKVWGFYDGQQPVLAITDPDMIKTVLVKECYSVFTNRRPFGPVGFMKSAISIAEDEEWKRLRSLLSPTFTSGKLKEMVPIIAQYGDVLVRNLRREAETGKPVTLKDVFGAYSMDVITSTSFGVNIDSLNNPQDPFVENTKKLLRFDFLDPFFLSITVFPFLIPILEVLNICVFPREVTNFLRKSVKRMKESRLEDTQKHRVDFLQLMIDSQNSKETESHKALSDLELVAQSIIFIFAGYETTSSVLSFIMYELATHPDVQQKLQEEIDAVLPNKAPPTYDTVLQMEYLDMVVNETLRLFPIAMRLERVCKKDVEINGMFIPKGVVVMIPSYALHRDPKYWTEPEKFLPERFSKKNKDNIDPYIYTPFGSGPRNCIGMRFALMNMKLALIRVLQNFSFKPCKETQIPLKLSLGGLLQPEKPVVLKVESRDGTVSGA

PXR [6] = molecular target: T2, PXR (Homo sapiens, UniProt O75469); assay: Activation of human PXR at 10 uM relative to control; assay type: toxicity; conditions: read-out: Activity
T2 sequence (O75469 whole entry): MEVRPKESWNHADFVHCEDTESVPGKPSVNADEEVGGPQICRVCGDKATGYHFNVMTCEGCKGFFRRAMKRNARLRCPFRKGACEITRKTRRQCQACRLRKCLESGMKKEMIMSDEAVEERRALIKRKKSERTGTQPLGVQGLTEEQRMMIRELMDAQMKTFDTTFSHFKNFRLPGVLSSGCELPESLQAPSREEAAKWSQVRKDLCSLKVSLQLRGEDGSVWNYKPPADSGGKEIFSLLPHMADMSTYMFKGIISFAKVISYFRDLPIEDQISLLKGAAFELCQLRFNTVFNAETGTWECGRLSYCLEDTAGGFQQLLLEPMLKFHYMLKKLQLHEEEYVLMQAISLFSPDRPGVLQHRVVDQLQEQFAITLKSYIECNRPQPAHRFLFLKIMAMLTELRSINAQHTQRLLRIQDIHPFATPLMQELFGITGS

[7] = Metabolic stability in mouse liver microsomes assessed as half life; assay type: ADME, Microsome
Cytochrome P450 2D6 = Cytochrome P450 2D6 (Homo sapiens, UniProt P10635); assay: Inhibition of human CYP2D6; assay type: ADME
Cytochrome P450 2D6, sequence (P10635 whole entry): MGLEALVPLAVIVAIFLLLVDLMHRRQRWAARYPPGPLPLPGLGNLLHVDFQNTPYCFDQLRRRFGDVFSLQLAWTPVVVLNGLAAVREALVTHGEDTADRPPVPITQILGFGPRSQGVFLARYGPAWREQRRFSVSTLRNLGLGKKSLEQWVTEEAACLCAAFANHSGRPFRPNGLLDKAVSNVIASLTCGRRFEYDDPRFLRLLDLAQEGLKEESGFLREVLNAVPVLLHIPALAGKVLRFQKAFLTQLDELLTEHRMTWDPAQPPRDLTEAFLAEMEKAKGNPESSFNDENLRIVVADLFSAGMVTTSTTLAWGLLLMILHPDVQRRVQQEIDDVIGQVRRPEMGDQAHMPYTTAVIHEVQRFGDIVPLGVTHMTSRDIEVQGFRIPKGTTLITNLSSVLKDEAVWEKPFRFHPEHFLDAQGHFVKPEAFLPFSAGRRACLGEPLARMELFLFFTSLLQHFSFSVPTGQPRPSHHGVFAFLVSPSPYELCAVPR

Cytochrome P450 3A4 [8] = molecular target: T1, Cytochrome P450 3A4; assay: Inhibition of human CYP3A4; assay type: ADME
[9] = Solubility of compound in FaSSIF; assay type: physicochemical
[10] = Plasma protein binding in human assessed as unbound fraction; assay type: ADME, cell-free
[11] = Inverse agonist activity at RORgammat in rat whole blood assessed as IL-17A production incubated for 1 hrs by ELISA analysis; assay type: tissue-based
[12] = Half life in male Sprague-Dawley rat at 5 mg/kg, po or 1 mg/kg, iv measured 24 hrs post dose by LC-MS/MS analysis; assay type: ADME, organism-based; conditions: in vivo
[13] = Aqueous solubility of the compound at pH 7; assay type: physicochemical; conditions: aqueous solution
[14] = molecular target: T3, Nuclear receptor subfamily 1 group I member 2 (Homo sapiens, UniProt O75469); assay: Activation of human PXR at 1 uM relative to control; assay type: toxicity
T3 sequence (O75469 whole entry): T2 sequence (O75469 whole entry)

Cytochrome P450 2C19 = Cytochrome P450 2C19 (Homo sapiens, UniProt P33261); assay: Inhibition of human CYP2C19; assay type: ADME
Cytochrome P450 2C19, sequence (P33261 whole entry): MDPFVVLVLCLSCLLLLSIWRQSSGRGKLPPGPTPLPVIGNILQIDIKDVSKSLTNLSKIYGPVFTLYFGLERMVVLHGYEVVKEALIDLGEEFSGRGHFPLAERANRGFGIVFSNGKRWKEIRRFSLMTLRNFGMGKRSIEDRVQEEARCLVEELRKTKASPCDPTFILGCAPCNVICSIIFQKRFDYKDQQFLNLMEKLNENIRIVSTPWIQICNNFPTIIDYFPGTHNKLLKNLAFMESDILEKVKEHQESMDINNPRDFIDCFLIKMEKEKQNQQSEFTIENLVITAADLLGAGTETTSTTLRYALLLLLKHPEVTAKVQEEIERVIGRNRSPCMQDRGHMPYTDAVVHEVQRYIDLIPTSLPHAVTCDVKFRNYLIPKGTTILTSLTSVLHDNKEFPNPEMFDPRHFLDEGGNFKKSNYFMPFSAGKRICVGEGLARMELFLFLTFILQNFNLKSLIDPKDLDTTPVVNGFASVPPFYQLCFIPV

[15] = Volume of distribution at steady state in male overnight fasted Beagle dog at 5 mg/kg, po or 1 mg/kg, iv measured 24 hrs post dose by LC-MS/MS analysis; assay type: ADME, organism-based, Canis lupus familiaris; conditions: in vivo
PXR [16] = molecular target: T2, PXR; assay: Activation of human PXR at 5 uM relative to control; assay type: toxicity; conditions: read-out: Activity
[17] = Metabolic stability in human liver microsomes assessed as half life; assay type: ADME, Microsome
[18] = molecular target: T4, Nuclear receptor ROR-gamma (Mus musculus, UniProt P51450); assay: Inverse agonist activity at RORgammat in mouse whole blood assessed as IL-17A production incubated for 1 hrs by ELISA analysis
T4 sequence (P51450 whole entry): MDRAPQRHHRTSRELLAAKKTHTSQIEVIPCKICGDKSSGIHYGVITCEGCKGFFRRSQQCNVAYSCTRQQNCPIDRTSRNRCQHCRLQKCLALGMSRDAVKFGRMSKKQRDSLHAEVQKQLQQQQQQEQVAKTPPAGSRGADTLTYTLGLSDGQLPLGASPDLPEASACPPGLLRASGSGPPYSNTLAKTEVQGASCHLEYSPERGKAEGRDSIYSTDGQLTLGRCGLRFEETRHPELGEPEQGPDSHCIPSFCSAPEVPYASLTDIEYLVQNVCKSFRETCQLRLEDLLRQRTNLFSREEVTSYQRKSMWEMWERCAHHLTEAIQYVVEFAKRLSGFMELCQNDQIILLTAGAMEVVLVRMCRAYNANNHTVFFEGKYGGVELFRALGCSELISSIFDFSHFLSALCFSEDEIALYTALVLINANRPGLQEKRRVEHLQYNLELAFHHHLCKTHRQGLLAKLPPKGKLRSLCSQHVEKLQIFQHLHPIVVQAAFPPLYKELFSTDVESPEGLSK

[19] = Half life in male overnight fasted Beagle dog at 5 mg/kg, po or 1 mg/kg, iv measured 24 hrs post dose by LC-MS/MS analysis; assay type: ADME, organism-based, Canis lupus familiaris; conditions: in vivo
hERG = hERG (Homo sapiens, UniProt Q12809); assay: Inhibition of hERG at 10 uM by Q-patch clamp method relative to control; assay type: toxicity
hERG, sequence (Q12809 whole entry): as the sequence (Q12809 whole entry) above

[20] = Plasma protein binding in dog assessed as unbound fraction; assay type: ADME, cell-free, Canis lupus familiaris
[21] = molecular target: T5, Nuclear receptor subfamily 1 group I member 3 (Homo sapiens, UniProt Q14994); assay: Antagonist activity at CAR (unknown origin) up to 1.5 uM by mammalian 1-hybrid assay
T5 sequence (Q14994 whole entry): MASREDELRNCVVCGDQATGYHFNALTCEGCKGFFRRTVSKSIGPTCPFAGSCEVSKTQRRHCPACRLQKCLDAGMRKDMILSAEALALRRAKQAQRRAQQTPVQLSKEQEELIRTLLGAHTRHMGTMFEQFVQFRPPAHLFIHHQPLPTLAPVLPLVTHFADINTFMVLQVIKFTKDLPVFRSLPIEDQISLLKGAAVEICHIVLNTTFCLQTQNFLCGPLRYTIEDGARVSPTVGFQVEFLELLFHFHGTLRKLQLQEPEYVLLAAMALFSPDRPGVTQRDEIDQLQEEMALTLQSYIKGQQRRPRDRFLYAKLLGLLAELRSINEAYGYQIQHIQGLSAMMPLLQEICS

[22] = molecular target: T5, Nuclear receptor subfamily 1 group I member 3; assay: Agonist activity at CAR (unknown origin) up to 1.5 uM by mammalian 1-hybrid assay
[23] = Solubility of compound in SGF; assay type: physicochemical
[24] = Aqueous solubility of the compound at pH 2; assay type: physicochemical; conditions: aqueous solution
[25] = Plasma protein binding in mouse assessed as unbound fraction; assay type: ADME, cell-free
Cytochrome P450 2C8 = molecular target: T6, Cytochrome P450 2C8 (Homo sapiens, UniProt P10632); assay: Inhibition of human CYP2C8; assay type: ADME
T6 sequence (P10632 whole entry): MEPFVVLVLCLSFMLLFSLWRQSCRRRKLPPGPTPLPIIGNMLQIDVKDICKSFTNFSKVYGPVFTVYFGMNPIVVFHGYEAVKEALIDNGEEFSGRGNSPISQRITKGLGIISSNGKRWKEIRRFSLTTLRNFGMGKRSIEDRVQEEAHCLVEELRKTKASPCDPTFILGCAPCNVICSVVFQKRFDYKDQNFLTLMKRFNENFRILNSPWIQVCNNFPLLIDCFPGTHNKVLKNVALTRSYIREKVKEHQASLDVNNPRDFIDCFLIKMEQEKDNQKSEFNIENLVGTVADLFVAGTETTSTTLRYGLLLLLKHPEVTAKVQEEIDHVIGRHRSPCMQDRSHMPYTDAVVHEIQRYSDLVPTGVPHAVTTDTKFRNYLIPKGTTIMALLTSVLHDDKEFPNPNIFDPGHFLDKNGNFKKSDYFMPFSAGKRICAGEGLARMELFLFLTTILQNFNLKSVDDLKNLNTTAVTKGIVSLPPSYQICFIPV

[26] = Oral bioavailability in male overnight fasted Beagle dog at 5 mg/kg measured 24 hrs post dose by LC-MS/MS analysis; assay type: ADME, organism-based, Canis lupus familiaris; conditions: in vivo
Cytochrome P450 2C9 = Cytochrome P450 2C9 (Homo sapiens, UniProt P11712); assay: Inhibition of human CYP2C9; assay type: ADME
Cytochrome P450 2C9, sequence (P11712 whole entry): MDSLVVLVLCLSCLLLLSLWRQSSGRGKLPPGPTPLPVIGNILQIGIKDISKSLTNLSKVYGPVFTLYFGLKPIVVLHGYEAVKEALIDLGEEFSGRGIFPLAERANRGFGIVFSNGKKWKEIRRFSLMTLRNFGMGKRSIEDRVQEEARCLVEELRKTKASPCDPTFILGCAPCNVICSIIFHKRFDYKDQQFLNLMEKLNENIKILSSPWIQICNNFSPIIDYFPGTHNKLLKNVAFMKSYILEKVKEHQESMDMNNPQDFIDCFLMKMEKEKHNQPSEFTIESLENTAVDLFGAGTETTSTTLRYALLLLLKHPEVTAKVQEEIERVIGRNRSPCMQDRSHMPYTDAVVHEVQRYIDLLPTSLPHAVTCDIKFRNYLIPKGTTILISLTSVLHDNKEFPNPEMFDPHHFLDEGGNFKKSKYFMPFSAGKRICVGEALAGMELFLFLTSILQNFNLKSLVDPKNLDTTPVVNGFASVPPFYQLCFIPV

[27] = Volume of distribution at steady state in male Sprague-Dawley rat at 5 mg/kg, po or 1 mg/kg, iv measured 24 hrs post dose by LC-MS/MS analysis; assay type: ADME, organism-based; conditions: in vivo
[28] = Genotoxicity in Salmonella typhimurium by Ames II test; assay type: toxicity; conditions: salmonella enterica subsp. enterica serovar typhimurium
Cytochrome P450 3A4 [29] = molecular target: T1, Cytochrome P450 3A4; assay: Time dependent inhibition of CYP3A4 (unknown origin); assay type: ADME

C[C@H]1CCCN1C(=O)c1nc(C(=O)NCC(C)(C)O)sc1-c1ccc(C(O)(C(F)(F)F)C(F)(F)F)c(Cl)c1Cl
half-life [1]: > 3 h | bioavailability [2]: 69% | IC50 [3]: 29.5 µM | fraction unbound [4]: 0.012 | Activity (Cytochrome P450 3A4 [5]): 26% | activity at 10 µM (PXR [6]): 42% | half-life [7]: > 3 h | IC50 (Cytochrome P450 2D6): 3.8 µM | IC50 (Cytochrome P450 3A4 [8]): 20 µM | solubility [9]: < 4 µM | fraction unbound [10]: 0.008 | IC50 [11]: 0.12 µM | half-life [12]: 4.1 h | solubility [13]: < 4 µM | Activity [14]: 18% | IC50 (Cytochrome P450 2C19): 31 µM | Vdss [15]: 1.5 L/kg | activity at 5 µM (PXR [16]): 21% | half-life [17]: > 3 h | IC50 [18]: 0.21 µM | half-life [19]: 26.2 h | inhibition at 10 µM (hERG): 52% | fraction unbound [20]: 0.009 | Activity [21]: Not_active | Activity [22]: Not_active | solubility [23]: < 4 µM | solubility [24]: < 4 µM | fraction unbound [25]: 0.008 | IC50 (Cytochrome P450 2C8): 18 µM | bioavailability [26]: 100% | IC50 (Cytochrome P450 2C9): 4.4 µM | Vdss [27]: 1.3 L/kg | Activity [28]: Non-toxic | TDI (Cytochrome P450 3A4 [29]): Not_active
